{"source": "patent US4980377A", "about": "“1-(aminophenyl)-2-aminopropanone derivatives” (Laboratoire L. Lafon, priority 1984, dated 1990)", "key": {"[1]": {"tested_on": "mice", "assay": "Motility reduced by hypoxic aggression", "assay_type": "in vivo, mouse", "settings": "i.p.", "procedure": "Half an hour after they have received CRL 41 153, the mice (10 per dose, 20 control animals) are subjected to acute hypobaric anoxia [pressure reduction of 600 mm Hg (i.e. about 8×10^4 Pa) in 90 seconds; release of vacuum in 45 seconds] and are then placed in an actimeter, where their motility is recorded for 10 minutes."}, "[2]": {"tested_on": "CNS", "assay": "Complementary tests by oral (gastric) administration", "assay_type": "in vivo"}, "[3]": {"tested_on": "mice", "assay": "Interaction with barbital", "assay_type": "in vivo, mouse", "settings": "i.p., barbital 220 mg/kg", "procedure": "Half an hour after the administration of CRL 41 153, groups of 10 mice receive an intraperitoneal injection of barbital (220 mg/kg)."}, "[4]": {"tested_on": "mice", "assay": "Interaction with oxotremorine", "assay_type": "in vivo, mouse", "settings": "i.p.", "procedure": "CRL 41 153 is administered to groups of 6 mice 0.5 hour before the intraperitoneal injection of 0.5 mg/kg of oxotremorine."}, "[5]": {"tested_on": "mice", "assay": "Asphyxiant anoxia (gallamine triiodoethylate)", "assay_type": "in vivo, mouse", "settings": "i.p., curarizing agent", "procedure": "Groups of 10 mice receive CRL 41 153 half an hour before the intraperitoneal administration of 32 mg/kg of gallamine triiodoethylate (reference curarizing agent)."}, "[6]": {"tested_on": "mice", "assay": "Behavioral despair", "assay_type": "in vivo, mouse", "settings": "forcibly immersed mice, i.p.", "from_the_text": "Half an hour after they have received CRL 41 153, groups of 6 mice are placed in a beaker filled with water to a height of 6 cm. The total period of immobility between the 2nd and 6th minutes following immersion is noted."}}, "note": "Entries after “also recorded” stand apart in the source; their conditions may differ. Structures can show the parent of a compound that is named as a salt.", "data": [{"smiles": "CC(C)NC(C)C(=O)c1ccc(N)cc1", "note": "(centres unmarked) [CRL 41 153, 1-(4-aminophenyl)-2-isopropylaminopropanone dihydrochloride]", "values": [{"measurement": "Motor recovery of mice after hypobaric hypoxia", "setting": "[1]", "result": "as from a dose of 0.5 mg/kg, CRL 41 153 causes a distinct improvement in the motor recovery"}, {"measurement": "Hypothermia induced by apomorphine", "setting": "[2]; gastric", "result": "antagonism of the hypothermia induced by apomorphine"}, {"measurement": "Motility", "setting": "[2]; gastric", "result": "hypermotility"}, {"measurement": "Sleep induced by barbital", "setting": "[2]; gastric", "result": "reduction in the sleep induced by barbital"}, {"measurement": "Action on gastric (oral) administration compared with intraperitoneal", "setting": "[2]; gastric vs i.p., dihydrochloride", "result": "very active substance; also recorded: same types of action on gastric administration as after intraperitoneal administration"}, {"measurement": "minimal effective dose", "setting": "[2]; po, gastric, read-out: Dose as from which antidepressant and stimulant and/or arousing effects appear", "result": "≥ 4", "unit": "mg/kg"}, {"measurement": "Duration of the sleep induced by barbital", "setting": "[3]", "result": "reduces the duration of the sleep induced by barbital (total antagonism is obtained at doses of 8 mg/kg and 32 mg/kg)"}, {"measurement": "Time taken to fall asleep (barbital)", "setting": "[3]", "result": "at doses of 0.5 to 32 mg/kg, CRL 41 153 increases the time taken to fall asleep"}, {"measurement": "Effect on hypothermic action of oxotremorine", "setting": "[4]", "result": "at doses of 2 mg/kg, 8 mg/kg and 32 mg/kg, CRL 41 153 opposes the hypothermic action of oxotremorine"}, {"measurement": "Effect on trembling induced by oxotremorine", "setting": "[4]", "result": "at doses of 8 mg/kg and 32 mg/kg, CRL 41 153 partially antagonizes the trembling induced by oxotremorine"}, {"measurement": "Action on the peripheral cholinergic symptoms", "setting": "[4]; oxotremorine", "result": "moderate α-adrenergic stimulant effect"}, {"measurement": "Time taken for convulsions to occur", "setting": "[5]", "result": "at a dose of 32 mg/kg, CRL 41 153 reduces the time taken for convulsions to occur"}, {"measurement": "Time taken for death to occur", "setting": "[5]", "result": "does not change the time taken for death to occur"}, {"measurement": "Period of immobility due to despair", "setting": "[6]", "result": "at doses greater than or equal to 0.5 mg/kg, CRL 41 153 reduces the period of immobility"}]}]}
